Assay [1] has as its target T1, cPLA2 (Homo sapiens, UniProt P47712).
T1 sequence (P47712 1-749): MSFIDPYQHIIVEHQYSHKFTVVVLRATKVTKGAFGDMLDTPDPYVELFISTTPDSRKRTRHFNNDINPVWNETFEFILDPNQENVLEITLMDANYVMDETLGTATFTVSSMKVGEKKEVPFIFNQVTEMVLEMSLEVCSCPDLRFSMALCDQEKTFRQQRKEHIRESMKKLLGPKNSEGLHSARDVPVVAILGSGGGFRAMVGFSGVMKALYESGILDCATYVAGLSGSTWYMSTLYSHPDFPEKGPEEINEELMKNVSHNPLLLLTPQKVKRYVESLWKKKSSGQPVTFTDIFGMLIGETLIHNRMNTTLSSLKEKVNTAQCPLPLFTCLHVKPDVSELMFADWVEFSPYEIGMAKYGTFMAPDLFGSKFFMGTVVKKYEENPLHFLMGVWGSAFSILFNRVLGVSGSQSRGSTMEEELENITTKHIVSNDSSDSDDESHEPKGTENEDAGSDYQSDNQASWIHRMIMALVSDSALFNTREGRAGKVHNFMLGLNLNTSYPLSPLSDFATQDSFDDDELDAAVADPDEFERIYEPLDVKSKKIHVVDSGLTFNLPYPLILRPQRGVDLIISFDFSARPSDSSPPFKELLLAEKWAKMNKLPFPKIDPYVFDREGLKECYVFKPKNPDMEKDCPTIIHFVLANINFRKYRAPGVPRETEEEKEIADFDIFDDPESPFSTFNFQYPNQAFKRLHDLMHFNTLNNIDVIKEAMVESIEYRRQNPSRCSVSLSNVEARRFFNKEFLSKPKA
The experiment in a line: Soluble substrate assay (LysoPC). Type of assay: biochemical. As for the experimental part: (b) Soluble Substrate Assay (LysoPC)
The lipid was resuspended by vortexing 80 mM Hepes pH 7.5, 1 mM EDTA (1.2×final concentration). A typical assay consisted of lipid suspension (85 μl) to which was added consecutively the inhibitor (5 μl in DMSO) and cPLA2, 200 ng in 80 mM Hepes pH 7.5, 2 mM DTT and […]. This assay was conducted by either the manual assay or automated assay protocol described below.

Assay [2] has as its target T1, cPLA2. The experiment in a line: Coumarine assay (7-hydroxycoumarinyl 6-heptenoate hydrolysis). Type of assay: biochemical. As for the experimental part:
7-hydroxycoumarinyl 6-heptenoate was used as a monomeric substrate for cPLA2 as reported previously (Huang, Z. et al., 1994, Analytical Biochemistry 222, 110-115). Inhibitors were mixed with 200 μL assay buffer (80 mM Hepes, pH 7.5, 1 mM EDTA) containing 60 μM 7-hydroxycoumarinyl 6-heptenoate. The reaction was initiated by adding 4 μg cPLA2 in 50 μL assay buffer. Hydrolysis of the 7-hydroxycoumarinyl 6-heptenoate ester was monitored in a fluorometer by exciting at 360 nm and monitoring emission at 460 nm. Enzyme activity is proportional to the increasein emission at 460 nm per minute. In the presence of a cPLA2 inhibitor, the rate of increase is less.

Where [3] appears, read: NA = inhibitory activity not detected, read-out: IC50 (μM) Lyso PC.
Setting [4] is: 60 μM 7-hydroxycoumarinyl 6-heptenoate, read-out: IC50 (μM) Coumarine.

Some results are limits rather than exact numbers.

Results on 32 compounds are retold here after US6630496B1, “Inhibitors of phospholipase enzymes” (Genetics Institute LLC, priority 1996, dated 2003).

“3-(2-(5-Benzyloxy-1-tert-butoxycarbonyl)indolinyl)methylsulfonylacetamidobenzoic Acid [Example 64]”: the values for the concentration for half-maximal inhibition (IC50) on cPLA2 [1] (setting [3]) and on cPLA2 [2] (setting [4]) were 17.6 µM and above 64 µM, respectively.
The corresponding values for “3-(2-(-5-Benzyloxy-1-(2,4-bis(1,1-dimethy)propyl)phenoxyacetyl)indolinyl)methylthioacetamido-4-methylbenzoic Acid [Example 18]” are 0.28 µM and 10 µM.
The corresponding values for “3-(N-(2-(-5-Benzyloxy-1-(2,4-bis(1,1-dimethy)propyl)phenoxyacetyl)indolinyl)methylthioethyl)aminobenzoic Acid [Example 69]” are 19.4 µM and 6 µM.
Take “5-(2-(5-(3,5-Dibromo)benzyloxy-1-(3,5-bis(trifluoromethyl)phenoxyacetyl)indolinyl)methylthioacetamido)benzene-1,3-dicarboxylic Acid [Example 45]”: the results for the IC50 on cPLA2 [1] (setting [3]) and on cPLA2 [2] (setting [4]) were 0.37 µM and 5 µM, respectively.
For the compound “5-(2-(-5-Benzyloxy-1-(3,5-bis(trifluoromethyl)phenoxyacetyl)indolinyl)methylthioacetamido)-3-hydroxymethylbenzoic Acid [Example 41]”, the concentration for half-maximal inhibition (IC50) at cPLA2 [1] (setting [3]) turned out to be 2.2 µM; at cPLA2 [2] (setting [4]) it was 22 µM.
The corresponding values for “5-(2-(-5-Benzyloxy-1-(3,5-bis(trifluoromethyl)phenoxyacetyl)indolinyl)methylthioacetamido)benzene-1,3-dicarboxylic Acid [Example 38]” are 6.9 µM and above 50 µM.
The corresponding values for “5-(2-(-5-Hydroxy-1-(3,5-bis(trifluoromethyl)phenoxyacetyl)indolinyl)methylthioacetamido)benzene-1,3-dicarboxylic Acid [Example 44]” are 27 µM and above 30 µM.
As to `O=C(O)c1ccccc1OCc1cc2cc(OCc3ccccc3)ccc2n1C(=O)OCc1ccccc1` [Example 1, 2-(2-(1-Phenylmethoxycarbonyl-5-phenylmethoxy)indolyl)methoxybenzoic Acid], it took 47 µM to reach half-maximal inhibition against cPLA2 [1] (IC50).
Still for that read-out and setting: then `O=C(O)c1ccc(OCc2cc3cc(OCc4ccccc4)ccc3n2C(=O)OCc2ccccc2)cc1` [Example 2, 4-(2-(1-Phenylmethoxycarbonyl-5-phenylmethoxy)indolyl)methoxybenzoic Acid], with 6 µM.
Turning to `O=C(O)c1cccc(OCc2cc3cc(OCc4ccccc4)ccc3n2C(=O)OCc2ccccc2)c1` [Example 3, 3-(2-(1-Phenylmethoxycarbonyl-5-phenylmethoxy)indolyl)methoxybenzoic Acid], the IC50 against cPLA2 [1] was 6.5 µM; against cPLA2 [2] it was 14 µM.
The corresponding values for `O=C(O)c1cccc(NC(=O)c2cc3cc(OCc4ccccc4)ccc3n2Cc2ccccc2)c1` [Example 5, 3-(2-(1-Benzyl-5-benzyloxy)indolecarboxamido)benzoic Acid] are 4.3 µM and 52 µM.
For `CCC(C)(C)c1ccc(CCCCn2c(C(=O)Nc3cc(C(=O)O)ccc3OC)cc3cc(OCc4ccccc4)ccc32)c(C(C)(C)CC)c1` [Example 6], in that order: 2 µM and 6 µM.
With `O=C(O)c1cc(NC(=O)c2cc3cc(OCc4ccccc4)ccc3n2Cc2ccc3ccccc3c2)cc(C(=O)O)c1` [Example 7], the half-inhibitory concentration (IC50) at cPLA2 [1] was 2.1 µM; at cPLA2 [2], 15 µM.
As to `CCC(C)(C)c1ccc(OCC(=O)c2c(CSCC(=O)Nc3cc(C(=O)O)ccc3OC)n(C)c3ccc(OC)cc23)c(C(C)(C)CC)c1` [Example 12, 3-(2-(3-(2,4-bis(1,1-Dimethypropyl)phenoxyacetyl)-5-methoxy-1-methyl)indolyl)methylthioacetamido-4-methoxybenzoic Acid], the IC50 worked out at 4 µM on cPLA2 [1] and 10 µM against cPLA2 [2].
The corresponding values for `CCn1c(CSCC(=O)Nc2cc(C(=O)O)ccc2OC)c(C(=O)COc2ccc(C(C)(C)CC)cc2C(C)(C)CC)c2cc(OCc3ccccc3)ccc21` [Example 13] are 0.5 µM and 12 µM.
As to `O=C(O)CSCC1Cc2cc(OCc3ccccc3)ccc2N1C(=O)COc1cc(C(F)(F)F)cc(C(F)(F)F)c1` (stereo not shown) [Example 37, 2-(5-Benzyloxy-1-(3,5-bis(trifluoromethyl)phenoxyacetyl)indolinyl)methylthioacetic Acid], the IC50 on cPLA2 [1] (setting [3]) is 7.6 µM; at cPLA2 [2] (setting [4]), above 30 µM.
For `CN(C)C(=O)c1cc(NC(=O)CSCC2Cc3cc(OCc4ccccc4)ccc3N2C(=O)COc2cc(C(F)(F)F)cc(C(F)(F)F)c2)cc(C(=O)O)c1` (stereo not shown) [Example 39], the IC50 came out at 4.3 µM at cPLA2 [1] (setting [3]) and 18 µM at cPLA2 [2] (setting [4]).
The corresponding values for `CC(=O)c1cc(NC(=O)CSCC2Cc3cc(OCc4ccccc4)ccc3N2C(=O)COc2cc(C(F)(F)F)cc(C(F)(F)F)c2)cc(C(=O)O)c1` (stereo not shown) [Example 40] are 6.2 µM and 11 µM.
In the case of `CC(O)c1cc(NC(=O)CSCC2Cc3cc(OCc4ccccc4)ccc3N2C(=O)COc2cc(C(F)(F)F)cc(C(F)(F)F)c2)cc(C(=O)O)c1` (stereo not shown) [Example 42], the IC50 at cPLA2 [1] (setting [3]) was 7.8 µM; at cPLA2 [2] (setting [4]) it was 14 µM.
In the case of `CNC(=O)c1cc(NC(=O)CSCC2Cc3cc(OCc4ccccc4)ccc3N2C(=O)COc2cc(C(F)(F)F)cc(C(F)(F)F)c2)cc(C(=O)O)c1` (stereo not shown) [Example 43], the IC50 on cPLA2 [1] (setting [3]) was 7.1 µM; at cPLA2 [2] (setting [4]), 21 µM.
The corresponding values for `CC(C)(c1ccccc1)c1ccc(OCC(=O)N2c3ccc(OCc4ccccc4)cc3CC2CSCC(=O)Nc2cccc(C(=O)O)c2)c(C(C)(C)c2ccccc2)c1` (stereo not shown) [Example 56] are 0.47 µM and 5 µM.
Take `O=C(CSCC1Cc2cc(OCc3ccccc3)ccc2N1C(=O)COc1ccc(C2C=CCC2)cc1C1C=CCC1)Nc1cccc(C(=O)O)c1` (stereo not shown) [Example 58]: the IC50 at cPLA2 [1] (setting [3]) is 0.56 µM; at cPLA2 [2] (setting [4]), 4 µM.
For `COc1ccc(C(=O)O)cc1NC(=O)CSCC1Cc2cc(OCc3ccccc3)ccc2N1C(=O)COc1ccc2ccccc2c1` (stereo not shown) [Example 59, 3-(2-(5-Benzyloxy-1-(2-naphthoxyaceiyl)indolinyl)methylthioacetamido)4-methoxybenzoic Acid], in that order: 8.7 µM and above 30 µM.
Turning to `COc1ccc(C(=O)O)cc1NC(=O)CSCC1Cc2cc(OCc3ccccc3)ccc2N1C(=O)COc1ccc(Cc2ccccc2)cc1` (stereo not shown) [Example 60], the IC50 on cPLA2 [1] (setting [3]) is 4.6 µM; at cPLA2 [2] (setting [4]), above 30 µM.
For `CCC(C)(C)c1ccc(OCC(=O)N2c3ccc(OCc4ccccc4)cc3CC2CSCC(=O)O)c(C(C)(C)CC)c1` (stereo not shown) [Example 66], the figures for the IC50 on cPLA2 [1] (setting [3]) and at cPLA2 [2] (setting [4]) were 2.3 µM and 6 µM, respectively.
For `CCC(C)(C)c1ccc(OCC(=O)N2c3ccc(OCc4ccccc4)cc3CC2CSc2ccccc2C(=O)NC)c(C(C)(C)CC)c1` (stereo not shown) [Example 68], in that order: above 50 µM and above 50 µM.
For `C=CCN(C(=O)CSCC1Cc2cc(OCc3ccccc3)ccc2N1C(=O)COc1ccc(C(C)(C)CC)cc1C(C)(C)CC)c1cc(C(=O)O)ccc1OC` (stereo not shown) [Example 71], in that order: 5.9 µM and 12 µM.
Regarding `O=C(CSCC1Cc2cc(OCc3ccccc3)ccc2N1CCc1ccncc1)Nc1cccc(C(=O)O)c1` (stereo not shown) [Example 72], the IC50 at cPLA2 [2] (setting [4]) is above 64 µM.
`O=C(CSCC1Cc2cc(OCc3ccccc3)ccc2N1Cc1ccc2ccccc2c1)Nc1cccc(C(=O)O)c1` (stereo not shown) [Example 73, 3-(2-(5-Benzyloxy-1-(2-naphthyl)methy)indolinyl)methylthioacetamidobenzoic Acid]: the IC50 came to 1.9 µM on cPLA2 [1] (setting [3]) and 6 µM at cPLA2 [2] (setting [4]).
As for `O=C(O)c1ccccc1SCC1Cc2cc(OCc3ccccc3)ccc2N1Cc1ccc(Cc2ccccc2)cc1` (stereo not shown) [Example 78], the IC50 at cPLA2 [2] (setting [4]) was found to be 3 µM.
In the case of `O=C(O)c1ccc(CN2c3ccc(OCc4ccccc4)cc3CC2COCc2ccc(C(F)(F)F)cc2C(F)(F)F)cc1` (stereo not shown) [Example 80, 4-(1-(5-Benzyloxy-2-(bis-2,4-trifluoromethyl)benzyloxymethyl)indolinyl)methylbenzoic Acid], the IC50 at cPLA2 [2] (setting [4]) amounted to 16 µM.
On the same count and under the same terms, then `COc1ccc(COc2ccc3c(c2)CC(CNC(=O)Nc2cc(C(=O)O)cc(C(=O)O)c2)N3Cc2ccc(C(F)(F)F)cc2C(F)(F)F)cc1` (stereo not shown) [Example 86], with 17 µM.

What is called IC50 is the midpoint of a concentration-inhibition curve.
